Tested on: skin which had suffered from photoaging
Experiment: Wrinkle alleviating effect on photoaged (UVA/UVB irradiated) hairless mice: wrinkle score, dermis collagen content, epidermis thickness
Assay type: in vivo
Source text: The wrinkle alleviating effect of the antiwrinkle agent of the present invention when applied to a skin which had suffered from photoaging was examined by the following test method. A group of ten hairless mice which were ten weeks old at the start of the test was used. Photoaging was caused by irradiating the mice with UVA and UVB once a day and five times per week for continuous eight weeks. A UVA dose of 20 J/cm^2 was increased to 25 J/cm^2 and then 30 J/cm^2 every week, and a UVB dose of 20 mJ/cm^2 was increased to 30 mJ/cm^2 and then 40 mJ/cm^2 every week, and the respective maximum doses were used on and after the third week. The wrinkle alleviating effect was evaluated in respect of the wrinkle score, the dermis collagen content and the epidermis thickness. […] Specifically, the wrinkles were macroscopically evaluated with respect to the size and depth and rated in 4 stages: “large and deep wrinkles can be recognized” was rated 3, “some wrinkles can be recognized” was rated 2, “any wrinkles cannot be recognized” was rated 1, and “normal and fine skin is observed” was rated 0. Whole skin was sampled and homogenized by a POLYTRON Homogenizer (manufactured by KINEMATICA AG), and then the collagen fraction was extracted and subjected to acid hydrolysis followed by quantitative determination of a hydroxyproline content using an amino acid analyzer (manufactured by JASCO Corporation). […]

| SMILES | Wrinkle alleviating effect on the wrinkles caused by the photoaging (overall conclusion in words) | Epidermis thickness, effect compared to Comparative Example 1 (base only) (result in words) |
| --- | --- | --- |
| C=CCc1ccc(O)c(OC)c1 [eugenol] | does not have a wrinkle alleviating effect | – |
| C=CCc1ccc(O[C@@H]2O[C@H](CO)[C@@H](O)[C@H](O)[C@H]2O)c(OC)c1 [eugenyl glycoside, eugenyl-β-D-glucoside] | – | had no such an action |

Reference: patent US8273719B2, “Wrinkle-diminishing agent” (Kao Corporation, priority 2004, dated 2012)
